Experimental data as given in PubChem BioAssay (NCI).
Values joined by “and” are separate entries in the source; they are usually repeats but may differ in a detail not shown here. Equal values may be shown once.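 Following 48 hours of exposure in 96-well plates, responses at five concentrations were used to interpolate endpoints linearly. The concentration for 50% growth inhibition is given as GI50. Definition used: TGI = concentration required for complete inhibition of growth.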

Assays:
Assay in all cases: inhibition of tumour cell growth, NCI panel, 48 h
HCT-116 colon = system: HCT-116 colon
HCC-2998 colon = system: HCC-2998 colon
NCI-H226 lung = system: NCI-H226 lung
MCF7 breast = system: MCF7 breast
UACC-257 melanoma = system: UACC-257 melanoma
M14 melanoma = system: M14 melanoma
SF-268 CNS = system: SF-268 CNS
RPMI-8226 leukemia = system: RPMI-8226 leukemia
U251 CNS = system: U251 CNS
CAKI-1 renal = system: CAKI-1 renal

Row | Structure (SMILES) | GI50 (HCT-116 colon) | TGI (HCT-116 colon) | GI50 (HCC-2998 colon) | TGI (HCC-2998 colon) | GI50 (NCI-H226 lung) | TGI (NCI-H226 lung) | GI50 (MCF7 breast) | TGI (MCF7 breast) | GI50 (UACC-257 melanoma) | TGI (UACC-257 melanoma) | GI50 (M14 melanoma) | GI50 (SF-268 CNS) | TGI (SF-268 CNS) | TGI (RPMI-8226 leukemia) | GI50 (U251 CNS) | GI50 (CAKI-1 renal) | TGI (CAKI-1 renal) | TGI (M14 melanoma) | TGI (U251 CNS) | GI50 (RPMI-8226 leukemia)
1 | Cc1cc(C2CCCCC2)n(O)c(=O)c1 | 1.02 µM | > 100 µM | 2.94 µM | > 100 µM and 35.5 µM | 2.2 µM | > 100 µM | 3.01 µM | > 100 µM | 2.6 µM | 21.9 µM and 8.45 µM | 1.39 µM | 1.27 µM | > 100 µM | 46.8 µM | 1.13 µM | 1.8 µM | 21.4 µM | – | – | –
2 | CN(C)C(=S)SN(C)C(=O)Nc1ccccc1 | – | > 67.4 µM | – | > 62.9 µM | – | > 92.4 µM | – | > 47.1 µM | – | > 63.1 µM | – | – | 99.9 µM | > 100 µM | – | – | 60.5 µM | 47.9 µM | > 93.8 µM | –
3 | NC(N)=NC(N)=Nc1cc2ccccc2c2ccccc12 | 5.33 µM | 18.3 µM | 6.89 µM | 24.2 µM | 10.5 µM | 25.5 µM | 3.7 µM | 18.8 µM | 10.5 µM | 22.9 µM | 10.6 µM | 9.61 µM | 24.1 µM | 26 µM | 4.83 µM | – | – | 24.7 µM | 18.1 µM | 4.49 µM
4 | Cc1cc(C)cc(Nc2cc(C)nc3nc(C(F)(F)F)nn23)c1 | 85 µM | > 100 µM | > 100 µM | > 100 µM | > 100 µM | > 100 µM | > 100 µM | > 100 µM | – | – | > 100 µM | 44.4 µM | > 100 µM | > 100 µM | > 100 µM | > 100 µM | > 100 µM | > 100 µM | > 100 µM | > 100 µM
5 | COc1ccc(C2CC(=O)c3c(OC)cc(OC)cc3O2)cc1 (configuration not stated) | > 100 µM | > 100 µM | > 100 µM | > 100 µM | > 100 µM | > 100 µM | > 100 µM | > 100 µM | > 100 µM | > 100 µM | – | > 100 µM | > 100 µM | > 100 µM | > 100 µM | > 100 µM | > 100 µM | – | > 100 µM | > 100 µM
6 | COc1cccc(NCc2nnc(Nc3ccc(Cl)cc3)c3ccccc23)c1 | 0.881 µM | 4.2 µM | 3.44 µM | 8.79 µM | 0.956 µM | 6.82 µM | 0.938 µM | 6.4 µM | 2.04 µM | 5.28 µM | 0.85 µM | 2.05 µM | 10.5 µM | 7.51 µM | 2.78 µM | – | – | 4.69 µM | 6.54 µM | 1.48 µM
7 | O=C(CCCSc1nc(-c2ccc(Cl)cc2)cc(-c2ccc(Cl)cc2)n1)NO | 0.532 µM | 17 µM | 2.78 µM | 10.3 µM | 2.17 µM | 11.6 µM | 1.23 µM | 12.4 µM | 2.92 µM | 18.2 µM | – | 1.21 µM | 7.72 µM | 36.7 µM | 0.693 µM | 0.334 µM | 10.7 µM | – | 13 µM | 1.38 µM
8 | COc1cccc(N=Cc2c3ccccc3c(=O)n3c2oc2ccccc23)c1 | 5.62 µM | > 100 µM | 6.81 µM | 44.9 µM | – | – | 4.06 µM | > 100 µM | – | – | 12.2 µM | 37.1 µM | > 100 µM | 42.6 µM | 7.67 µM | 2.92 µM | 11.5 µM | > 100 µM | > 100 µM | 6.54 µM
9 | COc1ccc(C2CC(=O)c3c(O)c(OC)c(OC)c(OC)c3O2)c(O)c1 (configuration not stated) | 0.053 µM | 60.9 µM | 0.761 µM | 27.2 µM | 4.49 µM | 24.7 µM | 0.0462 µM | 15.7 µM | – | – | 0.0834 µM | 0.534 µM | 38.3 µM | 18.4 µM | 0.0985 µM | 0.781 µM | 60.4 µM | 15.4 µM | 36.1 µM | 0.372 µM
10 | CC(C)(C)C1=CC(=CC=C2C=CN(CCCCCCCCCCCO)C=C2)C=C(C(C)(C)C)C1=O | – | 3.05 µM | – | 2.27 µM | – | – | – | 1.23 µM | – | 4.4 µM | – | – | 3.83 µM | 1.94 µM | – | – | 6.7 µM | 3.57 µM | 2.68 µM | –
11 | CC[C@H](C)[C@H](NC(=O)[C@H]1CCCCN1C)C(=O)N(C)[C@H](CCc1nc(C(=O)N[C@@H](Cc2ccccc2)C[C@H](C)C(=O)OC)cs1)C(C)C | 0.118 µM | > 5.35 µM | 0.694 µM | > 13.4 µM | 1.07 µM | > 12.4 µM | 0.0648 µM | > 25 µM | 4.43 µM | > 25 µM | 0.215 µM | 1.03 µM | > 25 µM | 8.17 µM | 0.345 µM | – | – | – | > 25 µM | 0.0929 µM
